The results in this text go back to article PMC10760875, “Synthesis of alnustone-like diarylpentanoids via a 4 + 1 strategy and assessment of their potential anticancer activity” (Turkish Journal of Chemistry, 2023).

In series [1] the test system is MCF-7 cells (breast cancer). Nature of the series: MTT cytotoxicity assay, MCF-7. Type of series: cell-based, human. The following applies: for SI, MCF-7 cells: SI = IC50 normal cells (HPAEpiC)/IC50 MCF-7; for IC50: Homo sapiens, MCF7, 48 h, MTT, 48 h, read-out: IC50 against MCF-7. The protocol: (§1) GBM (U87-MG), breast cancer (MCF-7), prostate carcinoma (PC-3), and lung epithelium (HPAEpiC) cell lines were used to assess the cytotoxic action potential of compounds 5a–5l. The cells were grown in a single layer in flasks in appropriate medium containing 10% fetal bovine serum (FBS), 1% penicillin/streptomycin, and 1% L-glutamine at 37 °C and 5% CO2 to maintain the pH balance. Cells that had reached 70%–80% confluence were used in the experiments.
(§2) The 3-(4,5-dimethylthiazol-2-yl)-2,5-diphenyltetrazolium bromide (MTT) method is a widely used colorimetric method for the quantitative determination of cell viability. It is based on the reduction of the tetrazolium ring of the yellow dye MTT by living cells. As a result of the reduction, the tetrazolium ring breaks down to form a dark blue-violet formazan compound. Cell viability is then determined spectrophotometrically. The viability of untreated cells is assumed to be 100% and the viability of treated cells is determined as a percentage (%) according to those cells.
(§3) To each 96-well plate, 2 × 10^4 cells were seeded and treated with 6 different concentrations (3.125, 6.25, 12.5, 25, 50, and 100 mg/L) of the 12 tested compounds, and then the plates were incubated in a CO2 oven at 37 °C for 48 h. At the end of the incubation, 10 μL of the MTT mixture was added to each well using a pipette, which was then gently mixed for 1 min on a circular mixer. The cells were incubated in a CO2 oven at 37 °C for 3–4 h. The formazan that formed as a result of the incubation was seen as dark crystals at the bottoms of the wells. The culture medium was carefully aspirated from each well without dispersing the cell layer, and then 100 μL of dimethyl sulfoxide (DMSO) was added to each well and gently stirred on an orbital stirrer to dissolve the formazan crystals. Each sample was read at a wavelength of 570 nm in a spectrophotometer and absorbance values were obtained. A wavelength of 630 nm was used as the reference wavelength.
(§4) Percent viability and cytotoxicity values for each dose administered were calculated according to the following formulas:
(§5) • % Viability = (absorbance of the sample/absorbance of the control) × 100 • % Cytotoxicity = [1 – (absorbance of the sample/absorbance of the control)] × 100
(§6) The IC50 dose, as the concentration of inhibitor that caused a 50% decrease in cell viability, was calculated using Excel regression analysis.
(§7) Human GBM (U87-MG), breast cancer (MCF-7), prostate cancer (PC-3), and pulmonary alveolar epithelial cells (HPAEpiC) cell lines from the American Type Culture Collection (ATCC) were used for the cytotoxicity testing of compounds 5a–5l. The cells were grown as a single layer in appropriate medium containing 10% FBS, 1% penicillin/streptomycin, and 1% L-glutamine at 37 °C and 5% CO2 atmosphere.
(§8) The cytotoxicity analyses of all of the compounds were investigated by determining cell viability based on the colorimetric MTT assay, which was conducted according to the manufacturer’s guide. First, […] were seeded in a 96-well plate and then incubated at 37 °C in a 5% CO2 environment for 24 h. The medium was aspirated the following day, and […] of each concentration of the 12 tested compounds (3.125, 6.25, 12.5, 25, 50, and 100 mg/L) were separately added to each well. The plates were then incubated for 48 h at 37 °C with 5% CO2. Next, 10 μL of MTT solution was added to each well and the plate was incubated for 4 h. The culture medium was aspirated from the wells without dispersing the cell layer and then 100 μL of DMSO was added to each well and stirred on an orbital stirrer to dissolve the formazan crystals. Each sample was read at a wavelength of 570 nm in a spectrophotometer and absorbance values were obtained. A wavelength of 630 nm was used as the reference. Cell viability was expressed as a percentage compared to the untreated cells. All experiments were performed in triplicate.
Background: Formazan colour is commonly taken as a measure of viable cells.

Series [2] has as its system U87-MG cells (human glioblastoma). In words: MTT cytotoxicity assay, U87-MG. It counts as cell-based. The following applies: for IC50: Homo sapiens, U-87 MG, MTT, 48 h, read-out: IC50 against U87-MG; for SI, U87-MG cells: SI = IC50 normal cells (HPAEpiC)/IC50 U87-MG. The protocol: as §1, §2, §3, §4, §5, §6, §7, §8
In series [3] the test system is U87-MG cells. Nature of the series: Hoechst 33258 nuclear staining, U87-MG. The following applies: IC50 concentration, 48 h. It counts as cell-based, human. The protocol:
(§9) Cell morphological characteristics were examined via the fluorescent Hoechst 33258 staining approach. […] The nuclei in the untreated group were stained a less brilliant blue and the color was uniform. After 48 h of treatment at the IC50 concentrations of compounds 5a and 5i, the blue emission light in the apoptotic cells was considerably brighter than in the control cells. Many compound-treated cells also had condensed chromatin, and some had the shape of apoptotic bodies, which is one of the basic features of apoptotic cells (Figures 5 and 6). In line with these findings, it was previously reported that the diarylpentanoid BP-M345 exerted potential as an anticancer drug, showing its antiproliferative activity by preventing mitosis through microtubule disruption and inducing cancer cell death. Likewise, diarylpentanoid derivatives have led to intrinsic apoptosis in cancer cells by upregulating proapoptotic proteins such as Bad and Bax and downregulating prosurvival proteins such as Bcl-2 and Bcl-xL [33]. […]
(§10) Hoechst 33258 staining was used to assess significant morphological changes in the nuclear chromatin of the cells. […] Thereafter, the cells were observed using a Leica DMIRB fluorescence microscope (Leica Microsystems, Wetzlar, Germany). […]

In series [4] the test system is MCF-7 cells. Nature of the series: Hoechst 33258 nuclear staining, MCF-7. It counts as cell-based, human. The following applies: IC50 concentration, 48 h. The protocol: as §9, §10
Series [5] concerns HPAEpiC cells (pulmonary alveolar epithelial cells). Nature of the series: MTT cytotoxicity assay, healthy HPAEpiC. Type of series: cell-based. To be noted: Homo sapiens, Epithelial cell, 48 h, read-out: IC50 against HPAEpiC (healthy cells). The protocol: as §1, §2, §3, §4, §5, §6, §7, §8
In series [6] the test system is PC-3 cells (prostate cancer). Nature of the series: MTT cytotoxicity assay, PC-3. Type of series: cell-based, human. The following applies: for IC50: Homo sapiens, PC-3, 48 h, MTT, 48 h, read-out: IC50 against PC-3; for SI, PC-3 cells: SI = IC50 normal cells (HPAEpiC)/IC50 PC-3. The protocol: as §1, §2, §3, §4, §5, §6, §7, §8

As usually defined, the IC50 is the concentration that gives 50% inhibition. Take `O=C(/C=C/c1ccccc1)CCc1ccccc1` [Compound 5a, (E)-1,5-diphenylpent-1-en-3-one]: in series [1], the “SI, MCF-7 cells” value is given as 7.45. In series [2], the half-maximal inhibitory concentration (IC50) is 107 µM and the “SI, U87-MG cells” value stood at 0.79. For the same compound, the “Nuclear morphology by Hoechst 33258 staining, U87-MG” value in series [3] is given as “apoptotic cells with fragmented nuclei”. For the same compound, the “Nuclear morphology by Hoechst 33258 staining, MCF-7” value in series [4] is “apoptotic cells with fragmented nuclei”. Besides, the 50% inhibitory concentration (IC50) in series [5] is 84.8 µM. Moreover, in series [6], the half-inhibitory concentration (IC50) stood at 50.1 µM and the “SI, PC-3 cells” value is reported as 1.69.

Consider `COc1ccc(/C=C/C(=O)CCc2ccc(O)cc2)cc1` [Compound 5i, (E)-5-(4-hydroxyphenyl)-1-(4-methoxyphenyl)pent-1-en-3-one], for which the “SI, MCF-7 cells” value in series [1] is reported as 2.52. For the same compound, in series [2], the IC50 amounted to 233 µM and the “SI, U87-MG cells” value came out at 0.06. In series [3], the “Nuclear morphology by Hoechst 33258 staining, U87-MG” value is listed as “apoptotic cells with fragmented nuclei”. Besides, the “Nuclear morphology by Hoechst 33258 staining, MCF-7” value in series [4] is “apoptotic cells with fragmented nuclei”. Moreover, the half-inhibitory concentration (IC50) in series [5] was determined as 14.9 µM. In series [6], the “SI, PC-3 cells” value turned out to be 1.53.

One may read the melting point as the temperature, or range, at which the solid turns liquid. Compound `COc1cc(/C=C/C(=O)CCc2ccc(O)cc2)ccc1O` [Compound 5j, (E)-1-(4-hydroxy-3-methoxyphenyl)-5-(4-hydroxyphenyl)pent-1-en-3-one] yielded a melting point of 131 to 132 °C. Besides, in series [1], the IC50 worked out at 35 µM and the “SI, MCF-7 cells” value stood at 2.67. In addition, in series [2], the concentration for half-maximal inhibition (IC50) amounted to 75.7 µM and the “SI, U87-MG cells” value was determined as 1.23. Moreover, the IC50 in series [5] is 93.4 µM. In series [6], the IC50 worked out at 32.2 µM and the “SI, PC-3 cells” value came to 2.90.

As to `COc1ccc(/C=C/C(=O)CCc2ccc(O)cc2)cc1O` [Compound 5k, (E)-1-(3-hydroxy-4-methoxyphenyl)-5-(4-hydroxyphenyl)pent-1-en-3-one], the melting point lay in the range of 130 to 131 °C. In addition, in series [1], the IC50 came to 203 µM and the “SI, MCF-7 cells” value is reported as 0.34. Moreover, in series [2], the IC50 is 52.6 µM and the “SI, U87-MG cells” value came to 1.32. In series [5], the concentration for half-maximal inhibition (IC50) came out at 69.3 µM. In series [6], the IC50 worked out at 45.1 µM and the “SI, PC-3 cells” value was found to be 1.54.

Consider `O=C(/C=C/c1ccc(O)c(O)c1)CCc1ccc(O)cc1` [Compound 5l, (E)-1-(3,4-dihydroxyphenyl)-5-(4-hydroxyphenyl)pent-1-en-3-one], for which the melting point lay within 202 to 203 °C. Further, in series [1], the concentration for half-maximal inhibition (IC50) was 317 µM and the “SI, MCF-7 cells” value is reported as 1.25. In series [2], the IC50 was 287 µM and the “SI, U87-MG cells” value is 1.38. Also, in series [5], the IC50 was found to be 396 µM. Moreover, in series [6], the IC50 came to 185 µM and the “SI, PC-3 cells” value was 2.14.
